The values below come from ChEMBL document CHEMBL1158737, “The psammaplysenes, specific inhibitors of FOXO1a nuclear export” (J Nat Prod, 2005).

The test deals with Forkhead box protein O1 (Homo sapiens) (UniProt Q12778). Kind of test: Inhibition of FOXO1a nuclear export in PTEN-deficient cells. The class given is cell-based.

Active and inactive are the calls of the source. The calls are words filed in the database; no cut-off is given here.

Sequence of Forkhead box protein O1 (Homo sapiens) (Q12778 whole entry): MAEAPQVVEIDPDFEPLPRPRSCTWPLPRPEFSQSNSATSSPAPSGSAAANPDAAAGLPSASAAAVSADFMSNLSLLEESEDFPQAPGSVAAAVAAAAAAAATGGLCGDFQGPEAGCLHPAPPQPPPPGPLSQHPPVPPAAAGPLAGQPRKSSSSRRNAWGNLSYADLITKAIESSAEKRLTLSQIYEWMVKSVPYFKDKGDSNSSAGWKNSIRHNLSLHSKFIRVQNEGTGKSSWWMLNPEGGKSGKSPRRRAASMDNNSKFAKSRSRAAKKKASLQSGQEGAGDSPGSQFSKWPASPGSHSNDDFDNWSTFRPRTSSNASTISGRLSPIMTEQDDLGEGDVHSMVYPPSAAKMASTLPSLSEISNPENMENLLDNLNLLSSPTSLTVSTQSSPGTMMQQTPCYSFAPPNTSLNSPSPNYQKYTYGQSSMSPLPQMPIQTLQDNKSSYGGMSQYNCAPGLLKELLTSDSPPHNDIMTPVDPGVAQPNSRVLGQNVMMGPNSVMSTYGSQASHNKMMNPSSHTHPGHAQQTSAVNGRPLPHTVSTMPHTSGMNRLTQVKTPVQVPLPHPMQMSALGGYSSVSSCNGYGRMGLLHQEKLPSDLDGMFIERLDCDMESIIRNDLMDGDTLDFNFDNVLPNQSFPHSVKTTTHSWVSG

For `CNCCCOc1c(Br)cc(CCNC(=O)/C(Cc2ccc(OC)c(Br)c2)=N/O)cc1Br`, the outcome was inactive.
